The record followed here is patent US20240166635A1, “AMINOHETEROARYL KINASE INHIBITORS” (Anrui Biomedical Technology (Guangzhou) Co.,Ltd., priority 2020, published 2024).

Holding throughout (format): biochemical
Assay [1] addresses CDK9/CyclinT1 (Homo sapiens (Human), UniProt P50750). Briefly: CDK9/CyclinT1 kinase inhibitory activity (Caliper mobility shift). The conditions noted are these: read-out: CDK9/Cyclin T1 IC50.
In assay [2] the target is CDK2/CyclinE1 (Homo sapiens (Human), UniProt P24941). The assay is described as follows: CDK2/CyclinE1 kinase inhibitory activity (Caliper mobility shift). The conditions noted are these: for IC50: read-out: CDK2/Cyclin El IC50.
For assay [3], the target named is CDK7/CyclinH/MAT1 (Homo sapiens (Human), UniProt P50613). The assay is described as follows: CDK7/CyclinH/MAT1 kinase inhibitory activity (Caliper mobility shift).
Sequence of CDK7/CyclinH/MAT1 (P50613 whole entry): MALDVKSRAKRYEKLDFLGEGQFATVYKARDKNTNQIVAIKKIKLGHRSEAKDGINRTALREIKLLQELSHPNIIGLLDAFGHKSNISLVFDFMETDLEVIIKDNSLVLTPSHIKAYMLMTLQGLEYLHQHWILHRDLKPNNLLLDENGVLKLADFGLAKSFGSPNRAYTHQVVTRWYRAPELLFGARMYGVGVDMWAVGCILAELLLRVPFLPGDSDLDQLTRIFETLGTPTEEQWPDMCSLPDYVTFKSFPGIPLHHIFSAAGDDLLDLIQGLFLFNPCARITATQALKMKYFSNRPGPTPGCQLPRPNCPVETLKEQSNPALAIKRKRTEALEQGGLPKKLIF
Sequence of CDK7/CyclinH/MAT1 (P51946 whole entry partner): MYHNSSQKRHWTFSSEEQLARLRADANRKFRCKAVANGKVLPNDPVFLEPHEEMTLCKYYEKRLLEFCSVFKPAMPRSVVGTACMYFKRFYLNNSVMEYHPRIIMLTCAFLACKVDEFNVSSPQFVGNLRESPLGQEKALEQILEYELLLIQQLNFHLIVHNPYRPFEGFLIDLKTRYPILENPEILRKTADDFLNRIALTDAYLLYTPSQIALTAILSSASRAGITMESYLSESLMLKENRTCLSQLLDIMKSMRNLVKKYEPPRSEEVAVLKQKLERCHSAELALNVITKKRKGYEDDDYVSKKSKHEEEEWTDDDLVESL
Sequence of CDK7/CyclinH/MAT1 (P51948 whole entry partner): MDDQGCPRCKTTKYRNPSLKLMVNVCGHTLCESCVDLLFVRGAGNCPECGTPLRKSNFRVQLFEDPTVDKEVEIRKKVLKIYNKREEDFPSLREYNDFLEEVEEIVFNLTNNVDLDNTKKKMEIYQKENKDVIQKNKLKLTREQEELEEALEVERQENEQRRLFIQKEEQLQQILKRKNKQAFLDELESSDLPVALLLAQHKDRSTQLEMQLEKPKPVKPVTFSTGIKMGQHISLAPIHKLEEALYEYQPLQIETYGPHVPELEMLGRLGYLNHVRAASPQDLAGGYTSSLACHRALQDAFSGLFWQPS
Assay [4] has as its target CDK6/CyclinD1 (Homo sapiens (Human), UniProt Q00534). Briefly: CDK6/CyclinD1 kinase inhibitory activity (Caliper mobility shift). The conditions noted are these: read-out: CDK6/Cyclin D1 IC50.
Assay [5] concerns the target CDK1/CyclinB (Homo sapiens (Human), UniProt P06493). Briefly: CDK1/CyclinB kinase inhibitory activity (Caliper mobility shift). The conditions noted are these: read-out: CDK1/Cyclin B1 IC50.
Assay [6] has as its target CDK4/Cyclin D1 (Homo sapiens (Human), UniProt P11802). The assay is described as follows: CDK4/CyclinD1 kinase inhibitory activity (Caliper mobility shift).

Sequence of CDK6/CyclinD1 (Q00534 whole entry): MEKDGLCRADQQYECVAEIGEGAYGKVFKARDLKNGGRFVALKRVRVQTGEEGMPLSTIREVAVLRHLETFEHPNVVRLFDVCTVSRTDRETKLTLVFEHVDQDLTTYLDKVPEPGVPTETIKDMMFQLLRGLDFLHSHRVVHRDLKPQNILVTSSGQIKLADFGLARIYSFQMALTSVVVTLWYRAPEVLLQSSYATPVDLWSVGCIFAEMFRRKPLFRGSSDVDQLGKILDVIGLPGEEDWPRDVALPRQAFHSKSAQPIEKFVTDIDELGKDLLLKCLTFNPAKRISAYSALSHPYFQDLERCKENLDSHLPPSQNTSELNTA
Sequence of CDK6/CyclinD1 (P24385 whole entry partner): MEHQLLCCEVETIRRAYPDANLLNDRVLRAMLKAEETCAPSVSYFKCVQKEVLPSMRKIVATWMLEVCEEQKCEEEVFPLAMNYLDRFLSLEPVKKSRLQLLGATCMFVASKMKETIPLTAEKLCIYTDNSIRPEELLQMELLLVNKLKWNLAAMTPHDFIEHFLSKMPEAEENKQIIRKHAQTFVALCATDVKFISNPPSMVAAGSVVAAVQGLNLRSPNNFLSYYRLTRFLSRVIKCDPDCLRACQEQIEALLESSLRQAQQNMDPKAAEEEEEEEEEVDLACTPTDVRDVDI
Sequence of CDK1/CyclinB (P06493 whole entry): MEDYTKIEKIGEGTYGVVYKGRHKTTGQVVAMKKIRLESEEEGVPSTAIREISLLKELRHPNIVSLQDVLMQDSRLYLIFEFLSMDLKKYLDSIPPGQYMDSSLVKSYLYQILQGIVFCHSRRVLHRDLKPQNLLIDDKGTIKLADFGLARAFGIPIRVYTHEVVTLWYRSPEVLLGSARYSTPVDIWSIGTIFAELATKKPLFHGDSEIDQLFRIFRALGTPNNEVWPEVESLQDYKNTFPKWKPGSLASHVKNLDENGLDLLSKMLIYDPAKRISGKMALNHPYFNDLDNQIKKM
Sequence of CDK1/CyclinB (P14635 whole entry partner): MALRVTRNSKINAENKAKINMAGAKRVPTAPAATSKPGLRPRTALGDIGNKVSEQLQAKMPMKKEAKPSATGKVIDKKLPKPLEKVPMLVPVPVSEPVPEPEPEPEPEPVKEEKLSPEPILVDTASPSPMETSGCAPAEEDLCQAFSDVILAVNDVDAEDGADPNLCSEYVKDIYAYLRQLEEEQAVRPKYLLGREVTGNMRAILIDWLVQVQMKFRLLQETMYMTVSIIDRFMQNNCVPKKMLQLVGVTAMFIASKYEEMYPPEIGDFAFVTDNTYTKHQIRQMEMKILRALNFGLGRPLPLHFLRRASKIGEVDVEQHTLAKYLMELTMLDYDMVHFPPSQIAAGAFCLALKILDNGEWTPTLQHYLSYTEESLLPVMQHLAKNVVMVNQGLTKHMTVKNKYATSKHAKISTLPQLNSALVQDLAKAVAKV
Sequence of CDK4/Cyclin D1 (P11802 whole entry): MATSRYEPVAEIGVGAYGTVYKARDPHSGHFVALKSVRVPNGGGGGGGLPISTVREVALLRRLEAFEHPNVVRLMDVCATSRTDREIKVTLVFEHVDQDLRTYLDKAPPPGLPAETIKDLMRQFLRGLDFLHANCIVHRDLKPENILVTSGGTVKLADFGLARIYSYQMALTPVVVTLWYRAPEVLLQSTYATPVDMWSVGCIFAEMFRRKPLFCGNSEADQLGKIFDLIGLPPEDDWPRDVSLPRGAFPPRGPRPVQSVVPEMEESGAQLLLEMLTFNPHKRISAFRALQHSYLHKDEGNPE
Sequence of CDK4/Cyclin D1 (P24385 whole entry partner): as the sequence (P24385 whole entry partner) above
Sequence of CDK9/CyclinT1 (P50750 whole entry): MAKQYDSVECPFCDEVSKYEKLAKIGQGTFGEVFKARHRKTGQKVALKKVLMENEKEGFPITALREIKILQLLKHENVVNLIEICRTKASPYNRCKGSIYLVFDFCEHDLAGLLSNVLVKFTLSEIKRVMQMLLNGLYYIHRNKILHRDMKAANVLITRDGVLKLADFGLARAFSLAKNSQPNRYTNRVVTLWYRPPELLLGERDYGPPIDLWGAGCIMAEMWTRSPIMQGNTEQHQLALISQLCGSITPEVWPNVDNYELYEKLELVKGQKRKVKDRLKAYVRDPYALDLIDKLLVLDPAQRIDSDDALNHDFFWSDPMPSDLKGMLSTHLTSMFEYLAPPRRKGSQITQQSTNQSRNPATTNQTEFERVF
Sequence of CDK9/CyclinT1 (O60563 whole entry partner): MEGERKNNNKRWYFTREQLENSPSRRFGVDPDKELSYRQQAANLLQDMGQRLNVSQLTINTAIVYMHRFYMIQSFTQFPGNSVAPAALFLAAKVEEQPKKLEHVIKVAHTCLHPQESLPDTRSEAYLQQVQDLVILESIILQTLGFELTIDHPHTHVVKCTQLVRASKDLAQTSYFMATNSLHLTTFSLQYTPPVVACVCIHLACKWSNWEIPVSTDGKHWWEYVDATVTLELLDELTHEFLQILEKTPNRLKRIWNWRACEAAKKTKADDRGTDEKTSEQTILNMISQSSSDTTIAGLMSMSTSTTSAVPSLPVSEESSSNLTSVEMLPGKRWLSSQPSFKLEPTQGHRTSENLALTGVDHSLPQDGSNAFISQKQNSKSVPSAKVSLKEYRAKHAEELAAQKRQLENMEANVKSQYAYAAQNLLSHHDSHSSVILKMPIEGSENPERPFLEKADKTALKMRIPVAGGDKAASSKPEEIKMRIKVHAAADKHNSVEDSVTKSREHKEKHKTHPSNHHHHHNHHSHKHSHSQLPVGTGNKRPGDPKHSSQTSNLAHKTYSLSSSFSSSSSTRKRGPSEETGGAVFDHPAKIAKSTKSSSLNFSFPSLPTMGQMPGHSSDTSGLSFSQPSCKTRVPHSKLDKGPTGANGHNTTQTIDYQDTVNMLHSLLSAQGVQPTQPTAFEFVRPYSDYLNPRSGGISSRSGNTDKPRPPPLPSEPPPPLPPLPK

Take `CN1CCC(NS(=O)(=O)c2ccc(Nc3ncc(Cl)c(OC4CCCC4O)n3)cc2)CC1` (single isomer, unassigned) [Example 139a]: the IC50 in assay [1] was 100 to 1000 nM; in assay [2] it was less than 10 nM; in assay [3] it was 100 to 1000 nM; in assay [4], 10 to 100 nM; in assay [5] it was 10 to 100 nM; in assay [6], 100 to 1000 nM.

As for `CN1CCC(NS(=O)(=O)c2ccc(Nc3ncc(Cl)c(OC4CCCC4O)n3)cc2)CC1` (single isomer, unassigned) [Example 139b], the IC50 in assay [1] was no less than 1000 nM; in assay [2], 10 to 100 nM; in assay [3], no less than 1000 nM; in assay [4] it was 100 to 1000 nM; in assay [5] it was 100 to 1000 nM; in assay [6], 100 to 1000 nM.

As to `[2H]C([2H])([2H])NS(=O)(=O)c1ccc(Nc2ncc(Cl)c(OC3COCC3(C)O)n2)cc1` (single isomer, unassigned) [Example 140a], the IC50 in assay [1] was 100 to 1000 nM; in assay [2], less than 10 nM; in assay [3], 100 to 1000 nM; in assay [4], 100 to 1000 nM; in assay [5], 10 to 100 nM; in assay [6], 100 to 1000 nM.

`NS(=O)(=O)c1ccc(Nc2ncc(Br)c(OC3CCCC3O)n2)cc1` (single isomer, unassigned) [Example 141a]: the IC50 in assay [1] is 10 to 100 nM; in assay [2] it was less than 10 nM; in assay [3], 100 to 1000 nM; in assay [4] it was 10 to 100 nM; in assay [5], 10 to 100 nM; in assay [6] it was 10 to 100 nM.

Regarding `CNS(=O)(=O)c1ccc(Nc2ncc(Br)c(OC3CCCC3O)n2)cc1` (single isomer, unassigned) [Example 142a], the IC50 is 100 to 1000 nM in assay [1]; less than 10 nM in assay [2]; 100 to 1000 nM in assay [3]; 10 to 100 nM in assay [4]; 10 to 100 nM in assay [5]; 100 to 1000 nM in assay [6].

Take `[2H]C([2H])([2H])NS(=O)(=O)c1ccc(Nc2ncc(Br)c(OC3CCCC3O)n2)cc1` (single isomer, unassigned) [Example 143a]: the IC50 in assay [1] is 100 to 1000 nM; in assay [2], less than 10 nM; in assay [3], 100 to 1000 nM; in assay [4], 10 to 100 nM; in assay [5], 10 to 100 nM; in assay [6], 100 to 1000 nM.

Turning to `Cn1cc(S(=O)(=O)N2CCC(Nc3ncc(Br)c(OC4CCCCC4O)n3)CC2)cn1` (single isomer, unassigned) [Example 144b], the IC50 in assay [1] is 100 to 1000 nM; in assay [2], less than 10 nM; in assay [3], 100 to 1000 nM; in assay [4], 10 to 100 nM; in assay [5] it was 10 to 100 nM; in assay [6], 10 to 100 nM.

For the molecule `CS(=O)(=O)N1CCC(Nc2ncc(Br)c(OC3CCCCCC3O)n2)CC1` (single isomer, unassigned) [Example 145b], the IC50 in assay [1] was 100 to 1000 nM; in assay [2], less than 10 nM; in assay [3], 10 to 100 nM; in assay [4], 10 to 100 nM; in assay [5], 10 to 100 nM; in assay [6], 10 to 100 nM.

For `Cc1cnc(Nc2ccc(S(=O)(=O)NC3CC3)cc2)nc1OC1CCCC1O` (single isomer, unassigned) [Example 146a], the IC50 is 100 to 1000 nM in assay [1]; less than 10 nM in assay [2]; no less than 1000 nM in assay [3]; 100 to 1000 nM in assay [4]; 100 to 1000 nM in assay [5]; no less than 1000 nM in assay [6].

Regarding `Cc1cnc(Nc2ccc(S(=O)(=O)NC(C)C)cc2)nc1OC1CCCC1O` (single isomer, unassigned) [Example 147a], the IC50 in assay [1] was 100 to 1000 nM; in assay [2], less than 10 nM; in assay [3], 100 to 1000 nM; in assay [4] it was 100 to 1000 nM; in assay [5] it was 10 to 100 nM; in assay [6] it was no less than 1000 nM.

As for `[2H]C([2H])([2H])NS(=O)(=O)c1ccc(Nc2ncc(C)c(OC3CCCC3O)n2)cc1` (single isomer, unassigned) [Example 148a], the IC50 in assay [1] was 100 to 1000 nM; in assay [2], less than 10 nM; in assay [3], no less than 1000 nM; in assay [4], 100 to 1000 nM; in assay [5], 100 to 1000 nM; in assay [6], no less than 1000 nM.

Turning to `[2H]C([2H])([2H])NS(=O)(=O)c1ccc(Nc2ncc(CC)c(OC3CCCC3O)n2)cc1` (single isomer, unassigned) [Example 149a], the IC50 is 100 to 1000 nM in assay [1]; less than 10 nM in assay [2]; 100 to 1000 nM in assay [3]; 100 to 1000 nM in assay [4]; 10 to 100 nM in assay [5]; 100 to 1000 nM in assay [6].

Consider `[2H]C([2H])([2H])NS(=O)(=O)c1ccc(Nc2ncc(CC)c(OC3COCC3(C)O)n2)cc1` (single isomer, unassigned) [Example 150a], for which the IC50 in assay [1] was 100 to 1000 nM; in assay [2] it was less than 10 nM; in assay [3], 100 to 1000 nM; in assay [4], 100 to 1000 nM; in assay [5], 10 to 100 nM; in assay [6], 100 to 1000 nM.

Consider `[2H]C([2H])([2H])NS(=O)(=O)c1ccc(Nc2ncc(CC)c(OC3CCOCC3O)n2)cc1` (single isomer, unassigned) [Example 151a], for which the IC50 in assay [1] is no less than 1000 nM; in assay [2], less than 10 nM; in assay [3] it was 100 to 1000 nM; in assay [4], 100 to 1000 nM; in assay [5], 100 to 1000 nM; in assay [6], no less than 1000 nM.

Turning to `[2H]C([2H])([2H])NS(=O)(=O)c1ccc(Nc2ncc(CC)c(OC3COCCC3(C)O)n2)cc1` (single isomer, unassigned) [Example 153a], the IC50 is 10 to 100 nM in assay [1]; less than 10 nM in assay [2]; 10 to 100 nM in assay [3]; 10 to 100 nM in assay [4]; 10 to 100 nM in assay [5]; 100 to 1000 nM in assay [6].

For the molecule `CC1(O)CCCC1Oc1nc(Nc2ccc(S(N)(=O)=O)cc2)ncc1C1CC1` (single isomer, unassigned) [Example 154a], the IC50 in assay [1] was 10 to 100 nM; in assay [2], less than 10 nM; in assay [3], 10 to 100 nM; in assay [4], 10 to 100 nM; in assay [5] it was less than 10 nM; in assay [6], 10 to 100 nM.

Take `C=Cc1cnc(Nc2ccc(S(N)(=O)=O)cc2)nc1OC1CCCC1O` (single isomer, unassigned) [Example 155a]: the IC50 in assay [1] was 10 to 100 nM; in assay [2] it was less than 10 nM; in assay [3], 100 to 1000 nM; in assay [4], 10 to 100 nM; in assay [5], 10 to 100 nM; in assay [6], 100 to 1000 nM.

Turning to `N#Cc1cnc(Nc2ccc(S(N)(=O)=O)cc2)nc1OCC1CCC1` [Example 9], the IC50 was 100 to 1000 nM in assay [1]; less than 10 nM in assay [2]; no less than 1000 nM in assay [3]; 10 to 100 nM in assay [4]; 10 to 100 nM in assay [5]; 10 to 100 nM in assay [6]. In addition, in assay [2] (inhibiting CDK2 over CDK1), the “selectivity over CDK1” value is “more than 30 fold”.

On to `N#Cc1cnc(Nc2ccc(S(N)(=O)=O)cc2)nc1OC1CCCC1` [Example 10], for which the IC50 in assay [1] was 10 to 100 nM; in assay [2] it was less than 10 nM; in assay [3], 100 to 1000 nM; in assay [4], 10 to 100 nM; in assay [5], 10 to 100 nM; in assay [6], 10 to 100 nM.

Regarding `CC1(COc2nc(Nc3ccc(S(N)(=O)=O)cc3)ncc2C#N)CCCC1` [Example 12], the IC50 in assay [1] is 10 to 100 nM; in assay [2] it was less than 10 nM; in assay [3], no less than 1000 nM; in assay [4], 100 to 1000 nM; in assay [5], 10 to 100 nM; in assay [6] it was less than 10 nM.

In the case of `CC1(COc2nc(NC3CCN(S(C)(=O)=O)CC3)ncc2C#N)CCC1` [Example 53], the IC50 in assay [1] was 100 to 1000 nM; in assay [2] it was less than 10 nM; in assay [3], 100 to 1000 nM; in assay [4], 10 to 100 nM; in assay [5], 10 to 100 nM; in assay [6], less than 10 nM.

Turning to `CC1(COc2nc(NC3CCN(S(C)(=O)=O)CC3)ncc2C#N)CCCC1` [Example 54], the IC50 in assay [1] was 100 to 1000 nM; in assay [2] it was less than 10 nM; in assay [3] it was 100 to 1000 nM; in assay [4], less than 10 nM; in assay [5] it was 10 to 100 nM; in assay [6], less than 10 nM.

As for `CNS(=O)(=O)N1CCC(Nc2ncc(C#N)c(OCC3(C)CCCC3)n2)CC1` [Example 55], the IC50 is 100 to 1000 nM in assay [1]; less than 10 nM in assay [2]; no less than 1000 nM in assay [3]; 10 to 100 nM in assay [4]; 10 to 100 nM in assay [5]; less than 10 nM in assay [6].

Turning to `CC1(COc2nc(NC3CCN(S(N)(=O)=O)CC3)ncc2C#N)CCCC1` [Example 56], the IC50 in assay [1] was 100 to 1000 nM; in assay [2], less than 10 nM; in assay [3] it was 100 to 1000 nM; in assay [4], 10 to 100 nM; in assay [5], less than 10 nM; in assay [6], less than 10 nM.

As to `CC1(COc2nc(NC3CCN(S(=O)(=O)CCO)CC3)ncc2C#N)CCCC1` [Example 57], the IC50 in assay [1] was 10 to 100 nM; in assay [2], less than 10 nM; in assay [3], 100 to 1000 nM; in assay [4], less than 10 nM; in assay [5], less than 10 nM; in assay [6], less than 10 nM.

Take `COCCS(=O)(=O)N1CCC(Nc2ncc(C#N)c(OCC3(C)CCCC3)n2)CC1` [Example 58]: the IC50 in assay [1] is 100 to 1000 nM; in assay [2], less than 10 nM; in assay [3], 100 to 1000 nM; in assay [4] it was 10 to 100 nM; in assay [5] it was 10 to 100 nM; in assay [6], less than 10 nM.

Regarding `Cn1cc(S(=O)(=O)N2CCC(Nc3ncc(C#N)c(OC4CC5(CCC5)C4)n3)CC2)cn1` [Example 59], the IC50 in assay [1] is 100 to 1000 nM; in assay [2], less than 10 nM; in assay [3], 100 to 1000 nM; in assay [4], 10 to 100 nM; in assay [5], 10 to 100 nM; in assay [6], less than 10 nM.
